# Columns and labels:
# Type in all cases: cell-based, human
# ecDNA hubs in COLO320-DM = test: ecDNA clustering by interphase DNA FISH, autocorrelation g(r); settings: 500 nM, 6 hours
# Description: The Oligopaint FISH probe libraries were constructed as described previously 51 Each oligo consists of a 40 nucleotide (nt) homology to the hg19 genome assemble designed from the algorithm developed from the laboratory of Dr. Ting Wu (https://oligopaints.hms.harvard.edu/). Each library subpool consists of a unique sets of primer pairs for orthogonal PCR amplification and a 20 nt T7 promoter sequence for in vitro transcription and a 20 nt region for reverse transcription. Individual Oligopaint probes were generated by PCR amplification, in vitro transcription, and reverse transcription, in which ssDNA oligos conjugated with ATTO488 and ATTO647 fluorophores were introduced during the reverse transcription step. The Oligopaint covered genomic regions (hg19) used in this study are as follows: chr8: 116967673-118566852 (hg19_COLO_nonecDNA_1.5Mbp), chr8: 127435083-129017969 (hg19_COLO_ecDNA_1.5Mbp), chr8: 128729248-128831223 (hg19_PC3_ecDNA1_100 kb). A ssDNA oligo pool was ordered and synthesized from Twist Bioscience (San Francisco, CA). 15 mm #1.5 round glass coverslips (Electron Microscopy Sciences) were pre-rinsed with anhydrous ethanol for 5 min, air dried, and coated with L-poly lysine solution (100 μg/mL) for at least 2 hours. Fully dissociated ColoDM320 or PC3 cells were seeded onto the coverslips and recovered for at least 6 hours before experiments. Cells were fixed with 4% (v/v) methanol free paraformaldehyde diluted in 1×PBS at room temperature for 10 min. Then cells were washed 2× with 1×PBS and permeabilized in 0.5% Triton-X100 in 1×PBS for 30 min. After 2× wash in 1×PBS, cells were treated with 0.1M HCl for 5 min, followed by 3× washes with 2×SSC and 30 min incubation in 2×SSC+0.1% Tween20 (2×SSCT)+50% (v/v) formamide (EMD Millipore, cat #S4117). […]
# To analyze the clustering of ecDNAs, we applied the autocorrelation function as described previously58 in Matlab (2019). g(r) estimates the probability of detecting another ecDNA signal at increasing distances from the viewpoint of an index ecDNA signal and is equal to 1 for a uniform, random distribution. Specifically, the pair auto-correlation function g(r^→) was calculated by the fast Fourier transform (FFT) method described by the equations below.
# N(r^→) is the auto-correlation of a mask matrix that has the value of 1 inside the nucleus used for normalization. […] Autocorrelation functions were calculated first by converting the Cartesian coordinates to polar coordinates by Matlab cart2pol( ) function, binning by radius and by averaging within the assigned bins. […]
# ecDNA+ COLO320-DM cells = test: PVT1 promoter-driven NanoLuc luciferase reporter in COLO320-DM; settings: JQ1 500 nM, 6 hours
# Description: We constructed a plasmid containing the 2 kb PVT1 promoter (chr8: 128,804,981-128,806,980, hg19) or the MYC promoter (chr8: 128,745,990-128,748,526, hg19) driving NanoLuc luciferase (PVT1p-nLuc) and a constitutive thymidine kinase (TK) promoter driving Firefly luciferase as an internal control (FIG. 3b). Briefly, pGL4-tk-luc2 (Promega) was digested with KpnI and PciI. A sequence containing multiple cloning sites ([…]), NanoLuc and BGH polyA sequence were inserted in tandem into the vector using Gibson assembly (NEBuilder DNA assembly mix). Next, the PVT1 promoter or the MYC promoter was inserted into the vector via NheI and SalI digestion to generate the final reporter construct. For the negative control, a minimal promoter ([…]) was used in place of the PVT1 promoter. For constructing plasmids with a cis-enhancer, an enhancer (chr8: 128347148-128348310, hg19; positive H3K27ac mark and looping to the PVT1 promoter in HiChIP, overlapping with BRD4 ChIP peak and ATAC-seq peak in COLO320-DM) was inserted directly 5′ to the promoter into the region with multiple cloning sites. […] Luciferase levels were quantified using Nano-Glo Dual reporter luciferase assay (Promega). The reporter level was calculated as the ratio of NanoLuc reading over firefly reading using Tecan M1000. Mean and standard errors were calculated based on three biological replicates with three technical replicate each.
# MYC in SNU16 = test: Oncogene RNA measured by RT-qPCR in SNU16 (MYC); settings: 500 nM JQ1, 6 hours
# Protocol: Cells were then treated for 6 hours with 500 nM JQ1 in DMSO unless otherwise indicated (Sigma-Aldrich SML1524) or an equivalent volume of DMSO.
# RNA was extracted using RNeasy Plus mini Kit (QIAGEN 74136). Purified RNA was quantified by Nanodrop (Thermo Fisher). For RT-qPCR, 50 ng of RNA, 1× Brilliant II qRT-PCR mastermix with 1 μL RT/RNase block (Agilent 600825), and 200 nM forward and reverse primer were used. Each Ct value was measured using Lightcycler 480 (Roche) and each mean dCt was averaged from duplicate qRT-PCR reaction and performed in biological triplicate. Relative MYC RNA level (RT-qPCR primers MYC_exon3_fw and MYC_exon3_rv) was calculated by ddCt method compared to 18S and GAPDH controls (RT-qPCR primers GAPDH_fw, GAPDH_rv, 18S_fw, 18S_rv). P values were calculated using a Student's t-test by comparing the relative fold change of biological triplicates.
structure (smiles),measurement,setting,value
Cc1sc2c(c1C)C(c1ccc(Cl)cc1)=N[C@@H](CC(=O)OC(C)(C)C)c1nnc(C)n1-2 [JQ1],"ecDNA hub clustering (interphase DNA FISH, autocorrelation g(r))",ecDNA hubs in COLO320-DM,dispersed ecDNA hubs
same,repression of PVT1p-mediated transcription,ecDNA+ COLO320-DM cells,~5 fold
same,ecDNA-derived transcription of MYC,MYC in SNU16,reduced

# From patent US20250304952A1, “DNA ELEMENT RESPONSIVE TO EXTRACHROMOSOMAL DNA IN CANCER CELLS” (The Board of Trustees of the Leland Stanford Junior …, priority 2021, published 2025)
